Structures can show the parent of a compound that is named as a salt.
Legend:
dd strain male mice [1] = assay: Analgesic activity test: acetic acid-induced stretching method; type: in vivo; conditions: Mus musculus, oral, 30 min before 0.6% acetic acid i.p., 95% confidence limits in parentheses on the next line
Procedure: (§1) The results of analgesic activity test and acute toxicity test performed on the compounds of this invention and aminopyrin as control are as described below.
Groups of each 10 dd strain male mice (about 18 g in body weight) were used for the test. Each mouse was orally administered with the drug being tested. Thirty minutes after the administration, 0.1 ml/10 g of a 0.6% acetic acid solution was intraperitoneously injected. […] The percentage effectiveness was determined by the formula [formula] From the effectiveness data, the median effective dose (ED50) and its 95% confidence limits were calculated by the method of Litchfield-Wilcoxon.

dd strain male mice [2] = assay: Analgesic activity test: modified Haffner method; type: in vivo; conditions: 30 min before 2 mg/kg morphine hydrochloride s.c., tail clamp, 95% confidence limits in parentheses; for ED50: Mus musculus
Procedure: as §1
Groups of each 10 dd strain male mice (about 19 g in body weight) were used for the test. Thirty minutes after the oral administration of the drug under test, 2 mg/kg of morphine hydrochloride was subcutaneously injected. After 15 minutes, the basal part of the mouse tail was clamped with Kocher's forcepts four times at each time interval of 15 minutes to observe the pain reaction of each mouse. The percentage effectiveness was calculated by the formula [formula] From the effectiveness data, the median effective dose (ED50) and its 95% confidence limits were calculated by the method of Litchfield-Wilcoxon.

dd strain male mice [3] = assay: Acute toxicity test; type: in vivo; conditions: 72 hours
Description: as §1
(§2) Groups of each 4-6 dd strain male mice (about 19 g in body weight) were used for the test. […] When the median lethal dose was not obtainable, the dose (mg/kg) and the ratio (number of dead animals)/(number of test animals) were shown in Table 2.

Acute toxicity test = type: in vivo, mice; conditions: mouse, in vivo; oral, 72 hours of observation; dd strain male mice; 95% confidence limits in parentheses on the next line
Description: as §1, §2

Structure (SMILES) | ED50 (dd strain male mice [1]) | ED50 (dd strain male mice [2]; po) | Acute toxicity, (number of dead animals)/(number of test animals) (dd strain male mice [3]; 250 mg/kg oral) | Acute toxicity, (number of dead animals)/(number of test animals) (dd strain male mice [3]; 500 mg/kg oral) | Acute toxicity, (number of dead animals)/(number of test animals) (dd strain male mice [3]; 1000 mg/kg oral) | Acute toxicity, (number of dead animals)/(number of test animals) (dd strain male mice [3]; 100 mg/kg (so in the source) oral) | LD50 at 72 h (Acute toxicity test) | ED50 (dd strain male mice [2]; oral) | Analgesic activity, ED50, Haffner method (dd strain male mice [2]; oral)
FC(F)(F)c1cc(N2CCN(CC3CC3)CC2)ccc1Cl [Compound 11] | 20.2 mg/kg | 5.8 mg/kg | 0/6 | 5/6 | 6/6 |  |  |  | 
Fc1ccccc1N1CCN(CC2CC2)CC1 [Compound 1] | 12.6 mg/kg | 11 mg/kg | 2/6 | 3/6 |  | 6/6 |  |  | 
Clc1ccc(N2CCN(CC3CC3)CC2)cc1 [Compound 4] | 17.9 mg/kg | 6.3 mg/kg | 0/6 | 5/6 | 6/6 |  |  |  | 
FC(F)(F)c1cccc(N2CCN(CC3CC3)CC2)c1 [Compound 7] |  | 5.5 mg/kg | 0/6 | 2/6 | 6/6 |  |  |  | 
C=CCN1CCN(c2cccc(C(F)(F)F)c2)CC1.Cl.Cl [Compound 14, 1-Allyl-4-(3-trifluoromethylphenyl)piperazine dihydrochloride] | 13.6 mg/kg | 7 mg/kg | 0/6 | 4/6 | 6/6 |  |  |  | 
Cc1c(N(C)C)c(=O)n(-c2ccccc2)n1C [Aminopyrin, aminopyrin, reference compound] | 63 mg/kg | 65 mg/kg |  |  |  |  | 750 mg/kg |  | 
Clc1cccc(N2CCN(CC3CC3)CC2)c1 [Compound 3] |  | 13.8 mg/kg | 0/6 | 2/6 | 6/6 |  |  |  | 
Clc1ccc(N2CCN(CC3CC3)CC2)cc1Cl [Compound 5] | 17.2 mg/kg | 7.2 mg/kg | 0/6 | 2/6 | 6/6 |  |  |  | 
Cl.Cl.Fc1ccc(N2CCN(CC3CC3)CC2)cc1 [Compound 2, 1-(cyclopropylmethyl)-4-(4-fluorophenyl)piperazine dihydrochloride] | 9.4 mg/kg | 13.2 mg/kg | 1/6 | 5/6 | 6/6 |  |  |  | 
FC(F)(F)c1cccc(N2CCN(CC3CC3)CC2)c1.O=C(O)CC(O)(CC(=O)O)C(=O)O [Compound 10, 1-(Cyclopropylmethyl)-4-(3-trifluoromethylphenyl)piperazine citrate] | 8.7 mg/kg |  | 0/6 | 2/6 | 6/6 |  |  | 2.5 mg/kg | 
Cl.Cl.FC(F)(F)c1cccc(N2CCN(CC3CC3)CC2)c1 [Compound 6, 1-(cyclopropylmethyl)-4-(3-trifluoromethylphenyl)piperazine dihydrochloride] | 2.8 mg/kg | 3.7 mg/kg | 0/6 | 4/6 | 6/6 |  |  |  | 
FC(F)(F)c1cccc(N2CCN(CC3CC3)CC2)c1 [Compound 9] |  |  | 0/6 | 3/6 | 6/6 |  |  |  | 4.9 mg/kg
CC(C)N1CCN(c2cccc(C(F)(F)F)c2)CC1 [Compound 12, 1-(3-trifluoromethyl)-4-isopropylpiperazine dihydrochloride] | 4.2 mg/kg | 4.9 mg/kg | 0/6 | 6/6 | 6/6 |  |  |  | 
